From ChEMBL document CHEMBL1157091, “An unprecedented biogenetic-type chemical synthesis of 1(15-->11) abeotaxanes from normal taxanes” (J Nat Prod, 2010) come the findings set out here.

Assay [1] relates to MCF7. Put plainly: Cytotoxicity against human MCF7 cells. The assay is classed as functional, cell-based.
The nature of assay [2]: Cytotoxicity against human […] cells. The assay is classed as cell-based.
Assay [3] concerns MDA-MB-231. Put plainly: Cytotoxicity against human MDA-MB-231 cells. The assay is classed as functional, cell-based.

Bounds are passed on as bounds.

Broadly, the IC50 is the concentration that inhibits the measured activity by half. Low readings indicate higher potency, high ones lower potency. In the case of `C=C1[C@H]2C[C@@H]3C[C@H](OC(C)=O)C(C)=C([C@@H](OC(C)=O)[C@H](OC(C)=O)[C@]2(C)[C@@H](OC(C)=O)C[C@@H]1O)C3(C)C`, the IC50 in assay [1], in assay [2] and in assay [3] was > 50 µM in each case.

In the case of `CC(=O)O[C@H]1C(=O)[C@@]2(C)[C@H]([C@H](OC(=O)c3ccccc3)[C@]3(O)C[C@H](OC(=O)[C@H](O)[C@@H](NC(=O)c4ccccc4)c4ccccc4)C(C)=C1C3(C)C)[C@]1(OC(C)=O)CO[C@@H]1C[C@@H]2O` [PACLITAXEL], in assay [2], 27 µM corresponded to half-maximal inhibition (IC50).
